Patent publication US10821110B2, “Composite preparation, containing novel 3-(4--(benzyloxy)phenyl)hex-4-inoic acid derivative and another active ingredient, for preventing or treating metabolic diseases” (HYUNDAI PHARM CO., LTD., priority 2014, dated 2020)

What was measured:
[1] = tested on: male diet-induced obesity (DIO) mice; assay: OGTT by co-administration with thiazolidinedione (TZD)-based drug; conditions: oral
Experimental: Here, as for a non-treated group, 5% carboxymethyl cellulose (CMC) was orally administered at the same dose. In addition, 10 mg/kg of rosiglitazone and pioglitazone, which are well known as thiazolidinedione (TZD)-based drugs, were administered alone. […] The saline and test materials were orally administered at 5 ml/kg.
After 60 minutes, glucose (4 g/kg) was orally administered at a dose of 5 ml/kg. The blood glucose was measured by using Accu-chek active strip (Roche diagnostic Co.).

Male Sprague Dawley rats = assay: Oral glucose tolerance test (OGTT) 1; assay type: in vivo; conditions: Rattus norvegicus, 2 h; SD rats; 10 mg/kg oral; glucose 4 g/kg 30 minutes after; read-out: % AUC (reduction (%) of blood glucose AUC)
Experimental: Male Sprague Dawley rats aged 8-10 weeks old were acclimated for at least 7 days, and then only healthy animals were used for the oral glucose tolerance test (OGTT test). After fasting for 16-18 hours, five rats per group were randomly grouped and orally administered with the compounds prepared in Examples 2, 3, 4, 6, 9, 12, 14, 16, 25, 29, 36, 37, 41, 43, and 44 at a dose of 10 mg/kg each. Here, as for a non-treated group (vehicle), a solution (PEG 400/Tween 80/0.25% CMC, 5%/5%/90%, v/v/v) containing 5% polyethyleneglycol/5% tween 80/0.25% carboxymethylcelluluse (CMC) was orally administered at the same dose. Glucose (4 g/kg) was orally administered at a dose of 5 ml/kg 30 minutes after each sample was administered. Then, the blood glucose was measured by using Accu-chek active strip (Roche diagnostic Co.).

[2] = tested on: Male Sprague Dawley (SD) rats; assay: Blood GLP-1 concentration increase after oral administration; assay type: in vivo, rat; conditions: Example 9 at 10-100 mg/kg, plasma after 20 minutes, FIG. 2
Experimental: After 20 minutes, about 0.5 ml of whole blood was collected by direct blood collection through cardiac injection, and the collected blood was immediately transferred to a sample tube treated with the dipeptidyl peptidase IV (DPPIV) inhibitor and ethylenediaminetetraacetic acid (EDTA), and placed in a container containing ice. The collected blood was centrifuged at 3600 rpm for 10 minutes to separate the plasma, and the separated plasma was measured for the plasma GLP-1 concentration through the GLP-1 ELISA kit (Millipore, USA).

[3] = tested on: male diet-induced obesity (DIO) mice; assay: OGTT by co-administration with DPPIV inhibitor (sitagliptin), mouse model; assay type: in vivo; conditions: oral
Experimental: Here, as for a non-treated group, 5% carboxymethyl cellulose (CMC) was orally administered at the same dose. […] Each test sample and 0.5% carboxymethyl cellulase (CMC) were orally administered at 5 ml/kg.

[4] = tested on: Male Sprague Dawley (SD) rats; assay: OGTT by co-administration with DPPIV inhibitor (linagliptin), SD rat model; assay type: in vivo; conditions: Example 9 3 mg/kg alone
Experimental: The blood glucose was measured by using Accu-chek active strip (Roche diagnostic Co.).

[5] = tested on: male diet-induced obesity (DIO) mice; assay: OGTT by co-administration with sulfonylurea-based drug (glimepiride); assay type: in vivo, mouse; conditions: oral
Experimental: Here, as for a non-treated group, 5% carboxymethyl cellulose (CMC) was orally administered at the same dose. In addition, 10 mg/kg of glimepiride, which is well known as a sulfonylurea-based drug, was administered alone. […] The saline and test materials were orally administered at 5 ml/kg.

[6] = tested on: male Zucker diabetic fatty (ZDF) rats; assay: OGTT by co-administration with biguanide-based drug (metformin), type II diabetic rat model; assay type: in vivo
[7] = tested on: Male Sprague Dawley (SD) rats; assay: OGTT by co-administration with biguanide-based drug (metformin), SD rat model; assay type: in vivo
[8] = tested on: Male Sprague Dawley (SD) rats; assay: OGTT by co-administration with SGLT2 inhibitor-based drug (empagliflozin); assay type: in vivo, rat
Experimental: The experimental results were expressed as mean and standard error (Mean±SE), and the differences between the control and the experimental groups were tested by one-way ANOVA (a Dunnett method) of “GraphPad Prism 4” software (Graphpad co., La Jolla, Calif., USA). Here, p<0.05 was considered statistically significant.

[9] = tested on: INS-1 cells (rat insulinoma cell line); assay: Insulin secretion experiment; assay type: cell-based; conditions: 25 mM glucose
Experimental: INS-1 cells (rat insulinoma cell line) were seeded in a 24-well plate at 5×10^5 cells/well, and cultured for 48 hours. […] The amount of insulin secreted in the insulin ELISA kit (Morinaga) was measured using the supernatant of the cells after the experiment was ended (see Table 16 and FIG. 11).

CCc1ccc(CCOc2ccc(CC3SC(=O)NC3=O)cc2)nc1 (stereo not drawn) [Pioglitazone, pioglitazone, reference compound]
Reduction (%) of blood glucose AUC ([1]; pioglitazone 10 mg/kg alone): 27.9%

CC#C[C@@H](CC(=O)O)c1ccc(OCc2cccc(C3=CCC4(CC3)OCCO4)c2)cc1 [Example 9, L-lysine (3S)-3-(4-(3-(1,4-dioxaspiro[4.5]dec-7-en-8-yl)benzyloxy)phenyl)hex-4-ynoate]
inhibition in vivo at 10 mg/kg (Male Sprague Dawley rats): 24.7% | blood GLP-1 concentration compared with the glucose treated group (Veh.) [2]: increased the blood GLP-1 concentration | Reduction (%) of blood glucose AUC ([3]; Example 9 30 mg/kg alone): 10.1% | Reduction (%) of blood glucose AUC ([3]; Example 9 100 mg/kg alone): 15.4% | Reduction (%) of blood glucose AUC [4]: 14.8% | Reduction (%) of blood glucose AUC ([5]; Example 9 10 mg/kg alone): 9.1% | Reduction (%) of blood glucose AUC ([5]; Example 9 30 mg/kg alone): 11.4% | Reduction (%) of blood glucose AUC ([5]; Example 9 100 mg/kg alone): 12.7% | Reduction (%) of blood glucose AUC ([6]; oral, Example 9 1 mg/kg alone): 34.2% | Reduction (%) of blood glucose AUC ([6]; oral, Example 9 3 mg/kg alone): 40.9% | Reduction (%) of blood glucose AUC ([6]; oral, Example 9 10 mg/kg alone): 37.8% | Reduction (%) of blood glucose AUC ([7]; Example 9 3 mg/kg alone): 14.5% | Reduction (%) of blood glucose AUC ([8]; Example 9 3 mg/kg alone): 14.8% | Insulin ([9]; Example 9 0.01 μM alone): 99 ng/mL | Reduction (%) of blood glucose AUC ([1]; Example 9 10 mg/kg alone): 24.9% | Reduction (%) of blood glucose AUC ([1]; Example 9 30 mg/kg alone): 20.2%

OC[C@H]1O[C@@H](c2ccc(Cl)c(Cc3ccc(O[C@H]4CCOC4)cc3)c2)[C@H](O)[C@@H](O)[C@@H]1O [Empagliflozin, empagliflozin]
Reduction (%) of blood glucose AUC ([8]; empagliflozin 1 mg/kg alone): 6.5% | Reduction (%) of blood glucose AUC ([8]; empagliflozin 3 mg/kg alone): 9.2% | Reduction (%) of blood glucose AUC ([8]; empagliflozin 10 mg/kg alone): 29.5%

CN(C)C(=N)N=C(N)N [Metformin, metformin]
Reduction (%) of blood glucose AUC ([6]; metformin 50 mg/kg alone): 21.7% | Reduction (%) of blood glucose AUC ([7]; metformin 10 mg/kg alone): 3.9% | Reduction (%) of blood glucose AUC ([7]; metformin 50 mg/kg alone): 7.3% | Reduction (%) of blood glucose AUC ([7]; metformin 100 mg/kg alone): 10.0%

CCC1=C(C)CN(C(=O)NCCc2ccc(S(=O)(=O)NC(=O)N[C@H]3CC[C@H](C)CC3)cc2)C1=O [Glimepiride, glimepiride, reference compound]
Reduction (%) of blood glucose AUC ([5]; glimepiride 10 mg/kg alone): 44.6%

COc1ccc(Cl)cc1C(=O)NCCc1ccc(S(=O)(=O)NC(=O)NC2CCCCC2)cc1 [Glibenclamide, glibenclamide]
Insulin ([9]; glibenclamide 0.1 μM alone, vehicle 58): 73 ng/mL | Insulin ([9]; glibenclamide 1 μM alone): 72 ng/mL
